Test results from ChEMBL document CHEMBL5107984, “The untapped potential of spermidine alkaloids: Sources, structures, bioactivities and syntheses” (Eur J Med Chem, 2022).

Key:
SARS-CoV-2 = assay: Antiviral activity against SARS-CoV-2; type: functional, Severe acute respiratory syndrome coronavirus 2
[1] = target: Cholinesterase (Homo sapiens) (UniProt P06276); assay: Inhibition of human BChE at 800 uM using butyrylthiocholine iodide as substrate incubated for 10 mins by Ellman's method
[2] = Antioxidant activity assessed as trolox equivalent of ORAC radical scavenging activity by ORAC assay; type: functional
[3] = target: Cholesterol 24-hydroxylase (Homo sapiens, UniProt Q9Y6A2); assay: Inhibition of CYP46A1 (unknown origin); type: ADME
Sequence of Cholesterol 24-hydroxylase (Q9Y6A2 whole entry): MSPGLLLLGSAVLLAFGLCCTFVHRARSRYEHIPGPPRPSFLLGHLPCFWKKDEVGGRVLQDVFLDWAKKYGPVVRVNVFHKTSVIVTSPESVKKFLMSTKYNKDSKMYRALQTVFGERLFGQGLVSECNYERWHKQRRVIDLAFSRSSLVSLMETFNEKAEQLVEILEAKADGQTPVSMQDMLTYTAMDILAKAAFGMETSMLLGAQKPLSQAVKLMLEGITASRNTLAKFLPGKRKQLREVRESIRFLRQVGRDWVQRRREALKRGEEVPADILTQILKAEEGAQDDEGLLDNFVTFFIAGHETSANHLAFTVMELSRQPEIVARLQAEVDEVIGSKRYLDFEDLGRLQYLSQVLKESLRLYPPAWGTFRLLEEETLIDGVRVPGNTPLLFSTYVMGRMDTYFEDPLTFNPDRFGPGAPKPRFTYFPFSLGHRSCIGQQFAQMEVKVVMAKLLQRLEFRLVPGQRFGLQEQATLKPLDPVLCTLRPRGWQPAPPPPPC

[4] = Inhibition of 5HT uptake in Sprague-Dawley rat brain Synaptosome; type: subcellular
[5] = target: Sodium-dependent serotonin transporter (Rattus norvegicus, UniProt P31652); assay: Displacement of [3H]-5HT from rat SERT expressed in CHO cells incubated for 20 mins by liquid scintillation analysis; type: cell-based
Sequence of Sodium-dependent serotonin transporter (P31652 whole entry): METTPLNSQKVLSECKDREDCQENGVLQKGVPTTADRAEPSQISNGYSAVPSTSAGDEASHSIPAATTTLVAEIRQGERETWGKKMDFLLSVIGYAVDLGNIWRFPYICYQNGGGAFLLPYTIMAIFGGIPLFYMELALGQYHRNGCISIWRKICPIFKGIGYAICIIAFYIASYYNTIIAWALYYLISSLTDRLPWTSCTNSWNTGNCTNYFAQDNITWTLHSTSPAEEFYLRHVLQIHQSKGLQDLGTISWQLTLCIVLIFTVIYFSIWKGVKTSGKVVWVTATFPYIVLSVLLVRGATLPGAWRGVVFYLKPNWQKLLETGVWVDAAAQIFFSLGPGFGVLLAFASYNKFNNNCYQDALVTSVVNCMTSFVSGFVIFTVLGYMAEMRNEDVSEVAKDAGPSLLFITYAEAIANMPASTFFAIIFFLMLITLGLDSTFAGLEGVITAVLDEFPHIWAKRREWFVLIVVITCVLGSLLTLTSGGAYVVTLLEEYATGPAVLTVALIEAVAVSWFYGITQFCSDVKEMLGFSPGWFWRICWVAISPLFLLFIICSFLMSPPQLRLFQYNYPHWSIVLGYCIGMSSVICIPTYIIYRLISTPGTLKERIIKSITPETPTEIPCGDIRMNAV

Sequence of Cholinesterase (Homo sapiens) (P06276 whole entry): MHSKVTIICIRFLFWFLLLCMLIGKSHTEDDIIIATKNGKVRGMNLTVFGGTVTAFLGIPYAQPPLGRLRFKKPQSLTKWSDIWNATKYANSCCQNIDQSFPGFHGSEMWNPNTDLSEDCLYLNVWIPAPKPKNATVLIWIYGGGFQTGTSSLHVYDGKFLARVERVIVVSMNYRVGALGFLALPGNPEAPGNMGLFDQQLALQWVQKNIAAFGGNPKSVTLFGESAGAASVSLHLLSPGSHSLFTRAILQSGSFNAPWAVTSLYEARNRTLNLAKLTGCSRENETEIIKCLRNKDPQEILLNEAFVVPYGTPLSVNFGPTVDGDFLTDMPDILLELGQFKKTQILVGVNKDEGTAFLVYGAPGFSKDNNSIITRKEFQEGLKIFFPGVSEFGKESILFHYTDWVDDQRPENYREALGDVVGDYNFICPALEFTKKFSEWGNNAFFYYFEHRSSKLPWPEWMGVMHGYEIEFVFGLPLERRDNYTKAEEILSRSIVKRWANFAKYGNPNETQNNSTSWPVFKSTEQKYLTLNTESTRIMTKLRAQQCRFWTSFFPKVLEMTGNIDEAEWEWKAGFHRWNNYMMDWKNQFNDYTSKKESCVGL

NCCCCNCCCN [SPERMIDINE]
inhibition (INH) (SARS-CoV-2): 85%

O=C1CCc2cc(O)c(O)cc2[C@@H](c2ccc(O)c(O)c2)CC(=O)NCCCCNCCCN1
inhibition [1]: 37.8% | Activity [2]: 2.68 µM

O=C(/C=C/c1ccc(O[C@@H]2O[C@H](CO)[C@@H](O)[C@H](O)[C@H]2O)c(O)c1)NCCCNCCCCNC(=O)CCc1ccc(O)c(O)c1
Ki [3]: 106 nM

O=C(/C=C/c1ccc(O)c(O[C@@H]2O[C@H](CO)[C@@H](O)[C@H](O)[C@H]2O)c1)NCCCNCCCCNC(=O)CCc1ccc(O)c(O)c1
Ki [3]: 12.9 nM

O=C1CCc2cc(O)c(O)cc2[C@H](c2ccc(O)c(O)c2)CC(=O)NCCCCNCCCN1
inhibition [1]: 18.1% | Activity [2]: 2.37 µM

O=C(/C=C/c1ccc(O)c(O)c1)NCCCNCCCCNC(=O)CCc1ccc(O[C@@H]2O[C@H](CO)[C@@H](O)[C@H](O)[C@H]2O)c(O)c1
Ki [3]: 258 nM

O=C(/C=C/c1ccc(O)cc1)NCCCCN(CCCNC(=O)/C=C/c1ccc(O)cc1)C(=O)/C=C\c1ccc(O)cc1
IC50 [4]: 1070 nM | IC50 [5]: 740 nM
